Experimental data published in US9730940B2, “Purine inhibitors of human phosphatidylinositol 3-kinase delta” (priority 2012, dated 2017).

Molecular target: PI3K-alpha (Homo sapiens (Human), UniProt P42336)
Assay: HTRF PI3K biochemical assay, alpha isoform
Settings: ratio PI3K-alpha IC50 value/PI3K-delta IC50 value

Chain of PI3K-alpha (P42336 whole entry, looked up, canonical isoform): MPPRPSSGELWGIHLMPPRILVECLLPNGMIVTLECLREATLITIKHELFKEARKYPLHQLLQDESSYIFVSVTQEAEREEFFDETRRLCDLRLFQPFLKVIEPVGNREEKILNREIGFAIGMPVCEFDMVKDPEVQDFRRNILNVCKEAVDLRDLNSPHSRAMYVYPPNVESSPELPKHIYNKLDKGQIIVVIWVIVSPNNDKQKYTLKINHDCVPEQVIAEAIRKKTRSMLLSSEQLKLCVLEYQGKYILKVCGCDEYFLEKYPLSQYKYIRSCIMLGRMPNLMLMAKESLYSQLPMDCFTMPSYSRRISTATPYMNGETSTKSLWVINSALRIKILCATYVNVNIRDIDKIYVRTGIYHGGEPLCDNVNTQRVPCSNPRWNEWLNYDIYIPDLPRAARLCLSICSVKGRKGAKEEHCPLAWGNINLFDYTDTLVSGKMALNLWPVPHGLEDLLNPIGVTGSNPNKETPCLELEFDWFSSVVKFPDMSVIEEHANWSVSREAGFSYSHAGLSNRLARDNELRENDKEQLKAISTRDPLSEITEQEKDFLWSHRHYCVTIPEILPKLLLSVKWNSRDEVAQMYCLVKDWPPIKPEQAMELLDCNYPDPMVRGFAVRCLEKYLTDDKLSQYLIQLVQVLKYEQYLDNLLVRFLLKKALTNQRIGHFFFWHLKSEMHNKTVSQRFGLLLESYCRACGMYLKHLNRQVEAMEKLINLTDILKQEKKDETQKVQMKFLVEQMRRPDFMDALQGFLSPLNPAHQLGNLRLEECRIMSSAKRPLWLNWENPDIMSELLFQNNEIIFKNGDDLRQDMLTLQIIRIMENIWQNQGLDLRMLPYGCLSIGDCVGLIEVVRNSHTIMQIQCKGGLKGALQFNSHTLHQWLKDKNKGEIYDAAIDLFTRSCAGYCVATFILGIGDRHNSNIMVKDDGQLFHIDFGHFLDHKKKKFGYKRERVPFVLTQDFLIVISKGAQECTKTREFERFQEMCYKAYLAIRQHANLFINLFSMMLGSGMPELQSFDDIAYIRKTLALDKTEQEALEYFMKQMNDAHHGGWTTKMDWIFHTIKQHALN
Chain of PI3K-alpha (P27986 whole entry partner, looked up, canonical isoform): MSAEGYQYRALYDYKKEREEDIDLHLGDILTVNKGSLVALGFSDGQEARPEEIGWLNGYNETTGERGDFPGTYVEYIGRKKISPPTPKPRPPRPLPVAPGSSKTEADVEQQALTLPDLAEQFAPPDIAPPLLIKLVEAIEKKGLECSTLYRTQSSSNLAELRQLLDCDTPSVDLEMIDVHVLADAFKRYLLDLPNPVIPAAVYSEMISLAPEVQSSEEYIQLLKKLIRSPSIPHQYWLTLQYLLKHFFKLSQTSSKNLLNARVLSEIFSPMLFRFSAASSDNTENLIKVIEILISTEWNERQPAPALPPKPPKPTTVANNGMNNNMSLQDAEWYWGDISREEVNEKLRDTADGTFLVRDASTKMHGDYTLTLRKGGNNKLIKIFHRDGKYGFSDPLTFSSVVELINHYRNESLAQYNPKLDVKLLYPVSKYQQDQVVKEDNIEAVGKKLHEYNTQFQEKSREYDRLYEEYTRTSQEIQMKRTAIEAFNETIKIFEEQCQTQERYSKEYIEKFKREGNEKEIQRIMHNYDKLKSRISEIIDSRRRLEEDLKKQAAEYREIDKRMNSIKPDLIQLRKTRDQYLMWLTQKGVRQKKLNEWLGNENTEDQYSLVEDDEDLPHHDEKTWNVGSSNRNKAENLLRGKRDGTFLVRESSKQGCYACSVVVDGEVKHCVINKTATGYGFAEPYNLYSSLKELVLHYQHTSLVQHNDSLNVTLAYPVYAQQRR

| Structure (SMILES) | Relative Selectivity versus PI3Kalpha |
| --- | --- |
| CCn1ncc(-c2nc3c(O[C@H]4CCN(c5nncc6ccccc56)C4)ncnc3n2C)c1C [Compound 7-8, 1-[(3S)-3-{[8-(1-ethyl-5-methyl-1H-pyrazol-4-yl)-9-methyl-9H-purin-6-yl]oxy}pyrrolidin-1-yl]phthalazine] | >10 |
| CCn1ncc(-c2nc3c(O[C@H]4CCN(c5cc(-n6cc(C)cn6)ncn5)C4)ncnc3n2C)c1C [Compound 7-9, 8-(1-ethyl-5-methyl-1H-pyrazol-4-yl)-9-methyl-6-({(3S)-1-[6-(4-methyl-1H-pyrazol-1-yl)pyrimidin-4-yl]pyrrolidin-3-yl}oxy)-9H-purine] | >10 |
| CCn1ncc(-c2nc3c(O[C@H]4CCN(c5nccc(-c6ccco6)n5)C4)ncnc3n2C)c1C [Compound 7-10, 8-(1-ethyl-5-methyl-1H-pyrazol-4-yl)-6-{[(3S)-1-(4-furan-2-ylpyrimidin-2-yl)pyrrolidin-3-yl]oxy}-9-methyl-9H-purine] | >10 |
| CCn1ncc(-c2nc3c(O[C@H]4CCN(c5cncc(C)n5)C4)ncnc3n2C)c1C [Compound 7-11, 8-(1-ethyl-5-methyl-1H-pyrazol-4-yl)-9-methyl-6-{[(3S)-1-(6-methylpyrazin-2-yl)pyrrolidin-3-yl]oxy}-9H-purine] | >10 |
| CCn1ncc(-c2nc3c(O[C@H]4CCN(c5ncnc6sc(C)c(C)c56)C4)ncnc3n2C)c1C [Compound 7-12, 6-{[(3S)-1-(5,6-dimethylthieno[2,3-d]pyrimidin-4-yl)pyrrolidin-3-yl]oxy}-8-(1-ethyl-5-methyl-1H-pyrazol-4-yl)-9-methyl-9H-purine] | >10 |
| CCn1ncc(-c2nc3c(O[C@H]4CCN(c5ncnc6sccc56)C4)ncnc3n2C)c1C [Compound 7-13, 8-(1-ethyl-5-methyl-1H-pyrazol-4-yl)-9-methyl-6-{[(3S)-1-thieno[2,3-d]pyrimidin-4-ylpyrrolidin-3-yl]oxy}-9H-purine] | >10 |
| CCn1ncc(-c2nc3c(O[C@H]4CCN(c5ncnc6c5cnn6C)C4)ncnc3n2C)c1C [Compound 7-14, 4-[(3S)-3-{[8-(1-ethyl-5-methyl-1H-pyrazol-4-yl)-9-methyl-9H-purin-6-yl]oxy}pyrrolidin-1-yl]-1-methyl-1H-pyrazolo[3,4-d]pyrimidine] | >10 |
| CCn1ncc(-c2nc3c(O[C@H]4CCN(c5cc(-n6cccn6)ncn5)C4)ncnc3n2C)c1C [Compound 7-15, 8-(1-ethyl-5-methyl-1H-pyrazol-4-yl)-9-methyl-6-({(3S)-1-[6-(1H-pyrazol-1-yl)pyrimidin-4-yl]pyrrolidin-3-yl}oxy)-9H-purine] | >10 |
| CCn1c(-c2cnc(C)nc2)nc2c(O[C@H]3CCN(c4ccccc4C)C3)ncnc21 [Compound 7-16, 9-ethyl-6-{[(3S)-1-(2-methylphenyl)pyrrolidin-3-yl]oxy}-8-(2-methylpyrimidin-5-yl)-9H-purine] | >10 |
| CCn1c(-c2cnc(C)nc2)nc2c(O[C@H]3CCN(c4ccccn4)C3)ncnc21 [Compound 7-17, 9-ethyl-8-(2-methylpyrimidin-5-yl)-6-{[(3S)-1-pyridin-2-ylpyrrolidin-3-yl]oxy}-9H-purine] | >10 |
| CCn1c(-c2cnc(C)nc2)nc2c(O[C@H]3CCN(c4cc(C)ccn4)C3)ncnc21 [Compound 7-18, 9-ethyl-6-{[(3S)-1-(4-methylpyridin-2-yl)pyrrolidin-3-yl]oxy}-8-(2-methylpyrimidin-5-yl)-9H-purine] | >10 |
| CCn1c(-c2cnc(C)nc2)nc2c(O[C@H]3CCN(c4ccccc4)C3)ncnc21 [Compound 7-19, 9-ethyl-8-(2-methylpyrimidin-5-yl)-6-{[(3S)-1-phenylpyrrolidin-3-yl]oxy}-9H-purine] | >10 |
| CCn1c(-c2cnc(C)nc2)nc2c(O[C@H]3CCN(c4ccc(F)cc4)C3)ncnc21 [Compound 7-20, 9-ethyl-6-{[(3S)-1-(4-fluorophenyl)pyrrolidin-3-yl]oxy}-8-(2-methylpyrimidin-5-yl)-9H-purine] | >10 |
| CCn1c(-c2cnc(C)nc2)nc2c(O[C@H]3CCN(c4cccc(F)c4)C3)ncnc21 [Compound 7-21, 9-ethyl-6-{[(3S)-1-(3-fluorophenyl)pyrrolidin-3-yl]oxy}-8-(2-methylpyrimidin-5-yl)-9H-purine] | >10 |
| CCn1c(-c2cnc(C)nc2)nc2c(O[C@H]3CCN(c4nccs4)C3)ncnc21 [Compound 7-22, 9-ethyl-8-(2-methylpyrimidin-5-yl)-6-{[(3S)-1-(1,3-thiazol-2-yl)pyrrolidin-3-yl]oxy}-9H-purine] | >10 |
| CCn1c(-c2cnc(C)nc2)nc2c(O[C@H]3CCN(c4cncnc4)C3)ncnc21 [Compound 7-23, 9-ethyl-8-(2-methylpyrimidin-5-yl)-6-{[(3S)-1-pyrimidin-5-ylpyrrolidin-3-yl]oxy}-9H-purine] | >10 |
| CCn1c(-c2cnc(C)nc2)nc2c(O[C@H]3CCN(c4cccnc4)C3)ncnc21 [Compound 7-24, 9-ethyl-8-(2-methylpyrimidin-5-yl)-6-{[(3S)-1-pyridin-3-ylprrolidin-3-yl]oxy}-9H-purine] | >10 |

| Structure (SMILES) | Relative Selectivity versus PI3Kalpha |
| --- | --- |
| CCn1c(-c2cnc(C)nc2)nc2c(O[C@H]3CCN(c4ccc5cnoc5c4)C3)ncnc21 [Compound 7-25, 6-{[(3S)-1-(1,2-benzisoxazol-6-yl)pyrrolidin-3-yl]oxy}-9-ethyl-8-(2-methylpyrimidin-5-yl)-9H-purine] | >10 |
| CCn1c(-c2cnc(C)nc2)nc2c(O[C@H]3CCN(c4cnccn4)C3)ncnc21 [Compound 7-26, 9-ethyl-8-(2-methylpyrimidin-5-yl)-6-{[(3S)-1-pyrazin-2-ylpyrrolidin-3-yl]oxy}-9H-purine] | >10 |
| CCn1c(-c2cnc(C)nc2)nc2c(O[C@H]3CCCN(c4ccccn4)C3)ncnc21 [Compound 7-27, 9-ethyl-8-(2-methylpyrimidin-5-yl)-6-{[(3S)-1-pyridin-2-ylpiperidin-3-yl]oxy}-9H-purine] | >10 |
| CCn1ncc(-c2nc3c(OC4CCC(C(=O)N5CCOCC5)C4)ncnc3n2C)c1C (stereo not drawn) [Compound 8-1] | 9 |
| CCn1ncc(-c2nc3c(OC4CCC(NC(=O)C5CCOCC5)C4)ncnc3n2C)c1C [Compound 9-3, cis-N-[(1S,3R)-3-{[8-(1-ethyl-5-methyl-1H-pyrazol-4-yl)-9-methyl-9H-purin-6-yl]oxy}cyclopentyl]tetrahydro-2H-pyran-4-carboxamide] | 8 |
| CCn1c(-c2cnc(C)nc2)nc2c(O[C@H]3C[C@@H](NC(=O)OC(C)(C)C)C3)ncnc21 [Compound 9-5, tert-butyl (cis-3-{[9-ethyl-8-(2-methylpyrimidin-5-yl)-9H-purin-6-yl]oxy}cyclobutyl)carbamate] | >10 |
| CCn1c(-c2cnc(C)nc2)nc2c(O[C@H]3C[C@H](NC(=O)OC(C)(C)C)C3)ncnc21 [Compound 9-6, tert-butyl (trans-3-{[9-ethyl-8-(2-methylpyrimidin-5-yl)-9H-purin-6-yl]oxy}cyclobutyl)carbamate] | >10 |
| CCC(=O)N[C@H]1CC[C@H](Oc2ncnc3c2nc(-c2cnc(C)nc2)n3CC)CC1 [Compound 9-7, N-(trans-4-{[9-ethyl-8-(2-methylpyrimidin-5-yl)-9H-purin-6-yl]oxy}cyclohexyl)propanamide] | >10 |
| CCn1c(-c2cnc(C)nc2)nc2c(O[C@H]3CC[C@@H](NC(=O)C4CC4)CC3)ncnc21 [Compound 9-8, N-(cis-4-{[9-ethyl-8-(2-methylpyrimidin-5-yl)-9H-purin-6-yl]oxy}cyclohexyl)cyclopropane carboxamide] | >10 |
| CCn1c(-c2cnc(C)nc2)nc2c(O[C@H]3C[C@H](NS(=O)(=O)CC)C3)ncnc21 [Compound 9-10, trans-N-(3-{[9-ethyl-8-(2-methylpyrimidin-5-yl)-9H-purin-6-yl]oxy}cyclobutyl) ethanesulfonamide] | >10 |
| CCn1ncc(-c2nc3c(S[C@H]4CCN(C(=O)OC(C)(C)C)C4)ncnc3n2C)c1C [Compound 10-1, (S)-tert-butyl 3-((8-(1-ethyl-5-methyl-1H-pyrazol-4-yl)-9-methyl-9H-purin-6-yl)thio)pyrrolidine-1-carboxylate] | >10 |
| CCn1ncc(-c2nc3c(S(=O)(=O)[C@H]4CCN(C(=O)OC(C)(C)C)C4)ncnc3n2C)c1C [Compound 10-2, (S)-tert-butyl 3-((8-(1-ethyl-5-methyl-1H-pyrazol-4-yl)-9-methyl-9H-purin-6-yl)sulfonyl)pyrrolidine-1-carboxylate] | 8 |
| CCn1ncc(-c2nc3c(S[C@H]4CCN(C(=O)C5CCOCC5)C4)ncnc3n2C)c1C [Compound 10-3, (S)-(3-((8-(1-ethyl-5-methyl-1H-pyrazol-4-yl)-9-methyl-9H-purin-6-yl)thio)pyrrolidin-1-yl)(tetrahydro-2H-pyran-4-yl)methanone] | >10 |
| CCC(=O)N1CC[C@H](Sc2ncnc3c2nc(-c2cnn(CC)c2C)n3C)C1 [Compound 10-4, (S)-1-(3-((8-(1-ethyl-5-methyl-1H-pyrazol-4-yl)-9-methyl-9H-purin-6-yl)thio)pyrrolidin-1-yl)propan-1-one] | >10 |
| CCn1ncc(-c2nc3c(S(=O)(=O)[C@H]4CCN(C(=O)C5CCOCC5)C4)ncnc3n2C)c1C [Compound 10-5, (S)-(3-((8-(1-ethyl-5-methyl-1H-pyrazol-4-yl)-9-methyl-9H-purin-6-yl)sulfonyl)pyrrolidin-1-yl)(tetrahydro-2H-pyran-4-yl)methanone] | 5 |
| CCC(=O)N1CC[C@H](S(=O)(=O)c2ncnc3c2nc(-c2cnn(CC)c2C)n3C)C1 [Compound 10-6, (S)-1-(3-((8-(1-ethyl-5-methyl-1H-pyrazol-4-yl)-9-methyl-9H-purin-6-yl)sulfonyl)pyrrolidin-1-yl)propan-1-one] | 5 |
